Tests used:
IDO1 [1] = target: T1, IDO1 (Homo sapiens (Human), UniProt P14902); test: IDO1 Cellular Assay in Frozen HEK293 Cells Transiently Transfected with Human IDO1; assay type: cell-based; conditions: HEK293 cells transiently transfected with human IDO1; read-out: IDO1 HEK293 Cell Assay, IC50
Procedure: IDO1 Cellular Assay in Frozen HEK293 Cells Transiently Transfected with Human IDO1
HEK293 cells were cultured in complete HEK293 culture medium (90% DMEM, 10% heat-inactivated fetal bovine serum). When reaching sub-confluent, the cells were trypsinized and neutralized with complete medium. […] Flag-IDO1 plasmid was added to the cell suspension at a concentration of 100 μg/mL. The cell-plasmid solutions were transferred to the OC-400 processing assembly (Maxcyte), 400 l/unit and the units were placed in a Maxcyte instrument to carry out flow electroporation for transfection. The cells were then transferred to a sterile 24-well cell culture plate to recover for 20-30 min at 37° C. in an incubator with 5% CO2.
Frozen HEK293/IDO1 and HEK293 WT cells were thawed and transferred into HEK293 assay medium (99% complete HEK293 culture medium, 1% Pen/Strep) with 20 mL medium/vial of cells. The cells were spun down at 250 g in a table top centrifuge for 5 min and suspended in same volume of HEK293 assay medium. […] Sterile L-tryptophan were added to the cells with final concentration of 300 μM.
HEK293/IDO1 and HEK293 WT cells were dispensed to the respective wells of 384-well assay plates containing the compounds. The plates were incubated for about 28-30 h at a 37° C., 5% CO2 incubator. […] The plates were centrifuged for 1 min at 200×g. The resulting fluorescence was measured in a Spectramax plate reader (Molecular Devices) with a 400 nm excitation filter and a 510 nm emission filter.

IDO1 [2] = target: T1, IDO1; test: IDO1 Cellular Assay in Hela Cells Stimulated with IFNγ; assay type: cell-based; conditions: Hela cells stimulated with IFNγ 100 ng/mL; read-out: IDO1 HELA Cell Assay, IC50
IDO1 [3] = target: T1, IDO1; test: IDO1 Enzyme Assay; conditions: read-out: IDO1 Enzyme Assay, IC50; HIS-tagged recombinant IDO1, 40 nM

T1 sequence (P14902 whole entry): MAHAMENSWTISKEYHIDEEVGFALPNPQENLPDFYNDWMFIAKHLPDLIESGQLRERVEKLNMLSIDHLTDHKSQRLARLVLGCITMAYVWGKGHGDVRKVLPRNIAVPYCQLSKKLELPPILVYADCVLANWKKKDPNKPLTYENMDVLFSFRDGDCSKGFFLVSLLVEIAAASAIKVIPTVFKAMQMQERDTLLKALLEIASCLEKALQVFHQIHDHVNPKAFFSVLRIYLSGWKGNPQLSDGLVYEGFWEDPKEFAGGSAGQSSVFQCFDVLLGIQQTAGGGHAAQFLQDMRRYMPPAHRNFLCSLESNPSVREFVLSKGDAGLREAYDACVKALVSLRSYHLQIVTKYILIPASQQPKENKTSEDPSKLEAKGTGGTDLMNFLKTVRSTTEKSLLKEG

Compound | IC50 (IDO1 [1]) [nM] | IC50 (IDO1 [2]) [nM] | IC50 (IDO1 [3]) [nM]
CN1C(=O)NC[C@@H]1CSc1nonc1/C(=N/O)Nc1ccc(F)c(Br)c1 [Example 43, (R)—N-(3-bromo-4-fluorophenyl)-N′-hydroxy-4-(((3-methyl-2-oxoimidazolidin-4-yl)methyl)thio)-1,2,5-oxadiazole-3-carboximidamide] | 78.5 | 118 | 53.3
NS(=O)(=O)NCCSc1nsnc1/C(=N/O)Nc1ccc(F)c(Br)c1 [Example 47, N-(3-bromo-4-fluorophenyl)-N′-hydroxy-4-((2-(sulfamoylamino)ethyl)thio)-1,2,5-thiadiazole-3-carboximidamide] | 290 | 245 | 439
COC(=O)[C@@H](N)CSc1nonc1/C(=N/O)Nc1ccc(F)c(Br)c1 [Example 48, methyl S-{4-[N-(3-bromo-4-fluorophenyl)-N′-hydroxycarbamimidoyl]-1,2,5-oxadiazol-3-yl}-L-cisteinate] | 226 | 648 | 170
CC(=O)NCCSc1nonc1/C(=N/O)Nc1ccc(F)c(C(F)(F)F)c1 [Example 49, N-{2-[(4-{N-[4-fluoro-3-(trifluoromethyl)phenyl]-N′-hydroxycarbamimidoyl}-1,2,5-oxadiazol-3-yl)sulfanyl]ethyl}acetamide] | 31.7 | 11.9 | 65.3
OCCSc1nonc1/C(=N/O)Nc1ccc(F)c(C(F)(F)F)c1 [Example 50, N-[4-fluoro-3-(trifluoromethyl)phenyl]-N′-hydroxy-4-[(2-hydroxyethyl)sulfanyl]-1,2,5-oxadiazole-3-carboximidamide] | 67.5 | 45.7 | 99.5
CC(=O)NCCSc1nonc1/C(=N/O)Nc1ccc(F)c(C)c1 [Example 51, N-[2-({4-[N-(4-fluoro-3-methylphenyl)-N′-hydroxycarbamimidoyl]-1,2,5-oxadiazol-3-yl}sulfanyl)ethyl]acetamide] | 106 | 48.1 | 113
CC(=O)NCCSc1nonc1/C(=N/O)Nc1ccc(F)c(OC(F)(F)F)c1 [Example 52, N-{2-[(4-{N-[4-fluoro-3-(trifluoromethoxy)phenyl]-N′-hydroxycarbamimidoyl}-1,2,5-oxadiazol-3-yl)sulfanyl]ethyl}acetamide] | 177 | 144 | 356
OCCCCCCSc1nonc1/C(=N/O)Nc1ccc(F)c(Br)c1 [Example 53, N-(3-bromo-4-fluorophenyl)-N′-hydroxy-4-[(6-hydroxyhexyl)sulfanyl]-1,2,5-oxadiazole-3-carboximidamide] | 786 | 683 | 98.5
CC(C)C(O)CCSc1nonc1/C(=N/O)Nc1ccc(F)c(Br)c1 (stereo not drawn) [Example 54, N-(3-bromo-4-fluorophenyl)-N′-hydroxy-4-[(3-hydroxy-4-methylpentyl)sulfanyl]-1,2,5-oxadiazole-3-carboximidamide] | 204 | 200 | 330
CCNc1c(NCCSc2nonc2/C(=N/O)Nc2ccc(F)c(Br)c2)c(=O)c1=O [Example 55, N-(3-bromo-4-fluorophenyl)-4-[(2-{[2-(ethylamino)-3,4-dioxocyclobut-1-en-1-yl]amino}ethyl)sulfanyl]-N′-hydroxy-1,2,5-oxadiazole-3-carboximidamide] | 261 | 67.8 | 20.2
N=C(N)NCCSc1nonc1/C(=N/O)Nc1ccc(F)c(Br)c1 [Example 56, N-(3-bromo-4-fluorophenvl)-4-[(2-carbamimidamidoethyl)sulfanyl]-N′-hydroxy-1,2,5-oxadiazole-3-carboximidamide] | 212 | 94.3 | 41.5
NC(CCSc1nonc1/C(=N/O)Nc1ccc(F)c(Br)c1)C(=O)O (stereo not drawn) [Example 57, S-{4-[N-(3-bromo-4-fluorophenyl)-N′-hydroxycarbamimidoyl]-1,2,5-oxadiazol-3-yl}homocysteine] | 361 | 131 | 29.4
CC(=O)NCCSc1nonc1/C(=N/O)Nc1cc(Br)c(F)cc1F [Example 58, N-[2-({4-[N-(5-bromo-2,4-difluorophenyl)-N′-hydroxycarbamimidoyl]-1,2,5-oxadiazol-3-yl}sulfanyl)ethyl]acetamide] | 290 | 154 | 136
CC(=O)NCCSc1nonc1/C(=N/O)Nc1cccc(Br)c1 [Example 59, N-[2-({4-[N-(3-bromophenyl)-N′-hydroxycarbamimidoyl]-1,2,5-oxadiazol-3-yl}sulfanyl)ethyl]acetamide] | 20.6 | 22.4 | 23.2
CN/C(=C\[N+](=O)[O-])NCCSc1nonc1C(=NO)Nc1ccc(F)c(Br)c1 [Example 60, N-(3-bromo-4-fluorophenyl)-N′-hydroxy-4-[(2-{[(E)-1-(methylamino)-2-nitroethenyl]amino}ethyl)sulfanyl]-1,2,5-oxadiazole-3-carboximidamide] | 176 | 153 | 36.5
O=C(CSc1nonc1/C(=N/O)Nc1ccc(F)c(Br)c1)Nc1ccccc1 [Example 61, 2-({4-[N-(3-bromo-4-fluorophenyI)-N′-hydroxycarbamimidoyl]-1,2,5-oxadiazol-3-yl}sulfanyl)-N-phenylacetamide] | 171 | 77.5 | 94.3
CCc1cccc(N/C(=N\O)c2nonc2SCCNC(C)=O)c1 [Example 65, N-[2-({4-[N-(3-ethylphenyl)-N′-hydroxycarbamimidoyl]-1,2,5-oxadiazol-3-yl}sulfanyl)ethyl]acetamide] | 74.5 | 52.6 | 59.4
O/N=C(\Nc1ccc(F)c(Br)c1)c1nonc1SC1CCNC1 (stereo not drawn) [Example 66, N-(3-bromo-4-fluorophenyl)-N′-hydroxy-4-(pyrrolidin-3-ylsulfanyl)-1,2,5-oxadiazole-3-carboximidamide] | 67.7 | 92.3 | 28.3
N#CCSc1nonc1/C(=N/O)Nc1ccc(F)c(Br)c1 [Example 67, N-(3-bromo-4-fluorophenyl)-4-[(cyanomethyl)sulfanyl]-N′-hydroxy-1,2,5-oxadiazole-3-carboximidamide] | 17.7 | 14.5 | 39.3
N#CC1(CSc2nonc2/C(=N/O)Nc2ccc(F)c(Br)c2)CC1 [Example 68, N-(3-bromo-4-fluorophenvl)-4-{[(1-cyanocyclopropyl)methyl]sulfanyl}-N′-hydroxy-1,2,5-oxadiazole-3-carboximidamide] | 107 | 77.2 | 96.2
CNC(=O)CCSc1nonc1/C(=N/O)Nc1ccc(F)c(Br)c1 [Example 70, 3-({4-[N-(3-bromo-4-fluorophenyl)-N′-hydroxycarbamimidoyl]-1,2,5-oxadiazol-3-yl}sulfanyl)-N-methylpropanamide] | 26.2 | 20.9 | 27.9
NS(=O)(=O)c1ccc(CCSc2nonc2/C(=N/O)Nc2ccc(F)c(Br)c2)cc1 [Example 71, N-(3-bromo-4-fluorophenyl)-N′-hydroxy-4-{[2-(4-sulfamoylphenyl)ethyl]sulfanyl}-1,2,5-oxadiazole-3-carboximidamide] | 109 | 91.2 | 407
O/N=C(\Nc1ccc(F)c(Br)c1)c1nonc1SC1CCNCC1 [Example 72, N-(3-bromo-4-fluorophenyl)-N′-hydroxy-4-(piperidin-4-ylsulfanyl)-1,2,5-oxadiazole-3-carboximidamide] | 231 | 283 | 87.8
Nc1c(NCCSc2nonc2/C(=N/O)Nc2ccc(F)c(Br)c2)c(=O)c1=O [Example 73, 4-({2-[(2-amino-3,4-dioxocyclobut-1-en-1-yl)amino]ethyl}sulfanyl)-N-(3-bromo-4-fluorophenyl)-N′-hydroxy-1,2,5-oxadiazole-3-carboximidamide] | 376 | 106 | 27.2
O/N=C(\Nc1ccc(F)c(Br)c1)c1nonc1SCC(O)c1ccccc1 (stereo not drawn) [Example 74, N-(3-bromo-4-fluorophenyl)-N′-hydroxy-4-[(2-hydroxy-2-phenylethyl)sulfanyl]-1,2,5-oxadiazole-3-carboximidamide] | 579 | 388 | 503
NS(=O)(=O)N1CCC(Sc2nonc2/C(=N/O)Nc2ccc(F)c(Br)c2)CC1 [Example 76, N-(3-bromo-4-fluorophenyl)-N′-hydroxy-4-[(1-sulfamoylpiperidin-4-yl)sulfanyl]-1,2,5-oxadiazole-3-carboximidamide] | 114 | 43.8 | 97.2
